{"source": "patent EP4574773A1", "about": "“DEVICE AND METHOD FOR TREATING CO[…] EFFLUENTS” (Université Gustave Eiffel, priority 2023, dated 2025)", "tested_on": "heterotrophic micro-organisms", "test": "BOD analyses with increasing perchlorate concentrations (respirometric, activated sludge)", "format": "cell-based", "settings": "activated sludge from a MBBR reactor; perchlorate 5 and 35 mg L^-1; data not shown", "protocol": "BOD analyses : For these measurements, the range was 0 - 400 mgO2 L^-1, the BOD test solutions were composed of: 141.6 mL of a mixture of carboxylic acids: oxalic acid (625 mg L^-1), maleic acid (137 mg L^-1), glyoxylic acid (261 mg L^-1), and formic acid oxalic acid (321 mg L^-1); 10 mL of a buffer solution: KH2PO4 (8.6 g L^-1), K2HPO4 (21.75 g L^-1), (Na2HPO4,2H2O) (33.4 g L^-1), NH4Cl (1.7 g L^-1); 0.4 mL of- Allylthiourea (C4H8N2S) (1 g L^-1), and 1 mL of activated sludge from a MBBR reactor who had been previously fed with the raw MLL for 4 months, completed with 11 mL concentrate solutions of perchlorate to obtain respective concentrations in perchlorate of 5 and 35 mg L^-1 in the final 164 mL liquid volume.\nBOD analyses with increasing perchlorate concentrations have been performed following a similar procedure as previously explained in the last section. […]"}
{"smiles": "[O-][Cl+3]([O-])([O-])O", "note": "[perchlorate]", "values": [{"measurement": "effect on heterotrophic micro-organisms", "value": "inihibiting effect"}]}
